Measurements as given in patent US4992450A, “Piperidine opioid antagonists” (Eli Lilly and Company, priority 1989, dated 1991).
Counter-ions that a name gives are not always drawn. Like-named read-outs stand apart in the source and are kept apart here.

Columns and labels:
mu receptor [1] = target: T1, mu receptor (Rattus norvegicus, UniProt P33535); experiment: Opioid receptor binding displacement assay, mu site (rat whole brain minus cerebellum, 3H ligand); set-up: species or system Male Sprague Dawley rats
T1 construct: rat whole brain minus cerebellum for mu and delta sites; from tissue; host or cells: rat whole brain minus cerebellum, frozen pellet fraction
Protocol: (§1) This assay was conducted by the following procedure.
(§2) Male Sprague Dawley rats for mu and delta site experiments and male Hartley guinea pigs for kappa site experiments were sacrificed via decapitation and the brains were removed. The brain tissue, rat whole brain minus cerebellum for mu and delta sites and guinea pig cortex for the kappa site, was homogenized in a Teflon and glass tissue homogenizer. A supernatant I, pellet IV, fraction was frozen in a nitrogen freezer at 1.33 g/ml concentration and stored for not longer than five weeks prior to use. Pellets were rehydrated with physiological buffer prior to use.
(§3) The reaction was initiated by the addition of the rehydrated tissue which has been preincubated at 37° C. for 20 minutes. The reaction mixture was incubated in a 37° C. water bath for 20 minutes. The reaction was terminated by rapid filtration, (Amicon vacuum manifolds), through Whatman GF/C glass filters that had been presoaked in Krebs-Hepes buffer pH 7.4. The filters were then washed 2× with 5 ml of ice cold Krebs-Hepes buffer pH 7.4. Washed filters were placed in scintillation vials and 10 ml PCS, (Amersham), was added and samples counted in a Searle D-300 beta counter. Means and standard error statistics were calculated for triplicate experimental determinations in certain cases. The procedure was slightly modified for the kappa site. The tissue was pretreated with 100 nM concentrations of mu and delta receptor site blockers. The incubation time for the reaction mixture was 45 minutes at 37° C.

kappa receptor [2] = target: T2, kappa receptor (Cavia porcellus, UniProt P41144); experiment: Opioid receptor binding displacement assay, kappa site (guinea pig cortex, 3H ligand); set-up: species or system male Hartley guinea pigs
T2 construct: guinea pig cortex for the kappa site; from tissue; host or cells: guinea pig cortex, frozen pellet fraction
Protocol: as §1, §2, §3

mu receptor [3] = target: T3, mu receptor (Mus musculus, UniProt P42866); experiment: Mouse writhing assay, antagonism of morphine analgesia (mu); assay type: in vivo, CF-1 male mice; conditions: sc, read-out: Mu AD50
T3 construct: Five CF-1 male mice (Charles River, Portage, Mich.); from tissue; host or cells: whole living CF-1 male mice (in vivo)

kappa receptor [4] = target: T4, kappa receptor (Mus musculus, UniProt P33534); experiment: in vivo; set-up: species or system CF-1 male mice; conditions: sc, read-out: Kappa AD50
T4 construct: Five CF-1 male mice (Charles River, Portage, Mich.); from tissue; host or cells: whole living CF-1 male mice (in vivo)

kappa receptors = target: T5, kappa receptors (Rattus norvegicus, UniProt P34975); experiment: Rat diuresis assay, antagonism of bremazocine-induced urination; assay type: in vivo, male Long-Evans hooded rats; conditions: sc, rats, s.c., urinary output reduced to 50% of effect of 0.08 mg/kg bremazocine alone
T5 construct: sixty male Long-Evans hooded rats; from tissue; host or cells: whole living male Long-Evans hooded rats (in vivo)
Protocol: As such, the compounds of the invention were also evaluated in a rat diuresis assay conducted according to the following procedure described by Leander et al. in Drug Development Research 4:421-427 (1984) in an effort to further establish the ability of the present compounds to block kappa receptors.
According to this procedure, sixty male Long-Evans hooded rats (Charles River Breeding Laboratories, Portage, Mich.) weighing between about 300 and 500 grams each were housed either individually or in pairs in a temperature-controlled (23° C.) colony room which was illuminated between 6:00 A.M. and 6:00 P.M. Rodent chow and tap water were continuously available except during the measurement of urine output. The animals were used repeatedly, but no more frequently than twice a week.
The animals were then injected with various doses of the test compounds. To measure urine output, the animals were removed from the home cages, weighed, injected and placed in metabolism cages for 5 hr. Excreted urine was funneled into graduated cylinders. Cumulative urine volumes were determined at designated time intervals, usually at 2 and 5 hr after injection.
The compounds which are salt forms were dissolved in distilled water. If necessary, the compounds were dissolved in distilled water with the aid of either a few drops of lactic acid or hydrochloric acid and gentle warming. All injections were s.c. in a volume of 1 ml/kg of body weight. During tests for antagonism, two injections were given, one on each side of the body.
In the Table, column 1 provides the Example Number of the compound tested; column 2, the amount of compound in mg/kg necessary to reduce the urinary output to 50% of the effect produced by 0.08 mg/kg of bremazocine alone two hours after injection of bremazocine and the test compound; and column 3, the amount of compound in mg/kg necessary to reduce the urinary output to 50% of the effect produced by 0.08 mg/kg of bremazocine alone five hours after injection of bremazocine and the test compound.

[5] = system: meal fed obese Zucker rats; experiment: Food consumption assay in meal fed obese Zucker rats; assay type: in vivo; conditions: Rattus norvegicus, sc, 4 h, amount to decrease food consumption 20% during first four hours
Text: The following assay was employed to evaluate the ability of the compounds of the invention to effect food and water consumption of meal fed obese Zucker rats.
According to this procedure, 3-4 month old obese Zucker rats were trained to eat food daily from 8:00 A.M. to 4:00 P.M. only, such that the body weight gain approximates that if the rats were fed ad libitum. These rats were allowed to consume water at all times. Four groups of rats with four rats in each group, two female and two male, were formed. One group served as control for the other three groups each day. Each of the other groups were given a subcutaneous dose of the compound to be evaluated. The test compound was formulated in physiological saline containing 10% dimethylsulfoxide by volume.
Animals remained drug free for 4 days before the next test. Food and water consumption of each rat were measured for the first four hours. A test on one compound was run for three consecutive days. The drug effect was expressed as the percent of the control for that test day.
In the Table, column 1 gives the Example Number of the compound evaluated; and column 2 provides the ED20 in mg/kg, wherein ED20 represents the amount of compound evaluated in mg/kg necessary to decrease food consumption 20% during the first four hours of the experiment.

[6] = rat brain minus cerebellum, pH 7.4, 37° C., 20 minutes, read-out: Ki Mu
[7] = guinea pig cortex, pH 7.4, 37° C., 45 minutes, mu and delta sites blocked (100 nM), read-out: Ki Kappa
[8] = 2 h, two hours after injection, read-out: AD50 Two Hours
[9] = 5 h, five hours after injection, read-out: AD50 Five Hours

T5 sequence (P34975 whole entry): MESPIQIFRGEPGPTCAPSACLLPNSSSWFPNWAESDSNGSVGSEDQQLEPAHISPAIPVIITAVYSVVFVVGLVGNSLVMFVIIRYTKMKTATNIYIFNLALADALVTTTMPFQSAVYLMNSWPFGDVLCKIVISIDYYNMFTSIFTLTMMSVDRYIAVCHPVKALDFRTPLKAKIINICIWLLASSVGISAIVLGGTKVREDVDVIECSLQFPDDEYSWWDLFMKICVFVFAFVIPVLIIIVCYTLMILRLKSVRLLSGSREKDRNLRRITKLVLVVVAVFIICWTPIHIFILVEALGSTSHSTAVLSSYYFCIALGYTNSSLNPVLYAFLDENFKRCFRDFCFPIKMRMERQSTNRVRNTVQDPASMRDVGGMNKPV
T1 sequence (P33535 whole entry): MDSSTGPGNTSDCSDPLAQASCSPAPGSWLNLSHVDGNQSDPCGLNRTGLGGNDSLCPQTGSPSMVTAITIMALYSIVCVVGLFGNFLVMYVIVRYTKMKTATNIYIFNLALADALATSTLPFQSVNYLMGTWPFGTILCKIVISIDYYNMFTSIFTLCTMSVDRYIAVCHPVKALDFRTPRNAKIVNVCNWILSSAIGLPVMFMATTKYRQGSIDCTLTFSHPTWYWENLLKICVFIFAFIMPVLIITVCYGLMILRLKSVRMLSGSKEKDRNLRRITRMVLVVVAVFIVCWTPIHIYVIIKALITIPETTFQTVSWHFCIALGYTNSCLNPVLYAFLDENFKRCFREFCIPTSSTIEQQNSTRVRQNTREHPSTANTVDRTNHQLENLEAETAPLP
T3 sequence (P42866 whole entry): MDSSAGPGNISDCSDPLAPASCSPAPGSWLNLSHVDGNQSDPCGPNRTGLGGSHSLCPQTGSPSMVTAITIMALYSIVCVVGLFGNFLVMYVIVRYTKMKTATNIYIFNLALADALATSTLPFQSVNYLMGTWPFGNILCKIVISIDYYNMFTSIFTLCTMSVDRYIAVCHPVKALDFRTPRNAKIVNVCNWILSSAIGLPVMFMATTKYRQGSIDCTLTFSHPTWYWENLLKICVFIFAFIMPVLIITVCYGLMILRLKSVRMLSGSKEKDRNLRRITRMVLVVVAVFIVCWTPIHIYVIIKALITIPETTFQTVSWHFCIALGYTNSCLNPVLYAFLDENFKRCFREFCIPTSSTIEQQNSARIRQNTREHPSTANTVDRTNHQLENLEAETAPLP
T4 sequence (P33534 whole entry): as the sequence (P34975 whole entry) above, with E11D, A17S, P51S, V308A counted along it
T2 sequence (P41144 whole entry): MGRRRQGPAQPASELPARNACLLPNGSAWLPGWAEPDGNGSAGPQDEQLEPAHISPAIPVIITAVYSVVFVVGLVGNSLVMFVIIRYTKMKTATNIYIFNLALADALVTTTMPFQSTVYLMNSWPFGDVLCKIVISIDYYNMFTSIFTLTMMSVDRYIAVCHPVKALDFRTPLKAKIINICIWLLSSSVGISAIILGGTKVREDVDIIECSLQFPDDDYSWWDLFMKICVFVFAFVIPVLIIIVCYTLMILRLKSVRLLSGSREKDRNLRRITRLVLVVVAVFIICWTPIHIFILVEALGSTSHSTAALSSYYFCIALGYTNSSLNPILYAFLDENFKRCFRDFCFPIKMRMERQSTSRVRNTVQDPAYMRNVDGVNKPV

Compound	Ki (mu receptor [1]; [6])	Ki (kappa receptor [2]; [7])	ED50 (mu receptor [3])	ED50 (kappa receptor [4])	ED50 (kappa receptors; [8])	ED50 (kappa receptors; [9])	ED20 [5]	Ki (mu receptor [1])	Ki (kappa receptor [2])
C[C@H]1CN(CCC(O)c2ccccc2)CC[C@@]1(C)c1cccc(O)c1 (relative stereo) [Compound A, 4β-(3-Hydroxyphenyl)-3β,4α-dimethyl-α-phenyl-1-piperidinepropanol hydrochloride, reference compound]	1 nM	22.7 nM	0.05 mg/kg	0.92 mg/kg	4.09 mg/kg	2.65 mg/kg	0.55 mg/kg	–	–
CC(C)CCCN1CCC(C)(c2cccc(O)c2)C(C)C1 (stereo not drawn) [Example 15, trans-(±)-1-(4-Methylpentyl)-3,4-dimethyl-4-(3-hydroxyphenyl)piperidine hydrochloride]	–	–	0.11 mg/kg	0.09 mg/kg	0.27 mg/kg	0.39 mg/kg	3.65 mg/kg	1.25 ± 0.4 nM	9.43 ± 1.67 nM
C[C@H]1CN(CC[C@H](O)C2CCCCC2)CC[C@@]1(C)c1cccc(O)c1 [Example 23, trans-(+)-1-[S-(3-Hydroxy-3-cyclohexylpropyl)]-3,4-dimethyl-4-(3-hydroxyphenyl)piperidine]	0.41 ± 0.09 nM	2.02 ± 0.46 nM	0.01 mg/kg	0.07 mg/kg	0.4 mg/kg	0.38 mg/kg	0.05 mg/kg	–	–
